Source: patent US12077503B2, “Substituted cyclic amides and their use as herbicides” (FMC CORPORATION, priority 2015, dated 2024)

Assays:
Format in all cases: in vivo
[1] = tested on: ducksalad (Heteranthera limosa); assay: Test B flooded paddy test; details: Flood, 250 g ai/ha; 0 to 100 scale where 0 is no effect and 100 is complete control; 13 to 15 d
Method in brief: (§1)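 Rating scale 0–100 (visual, vs untreated controls) after a 13–15 d greenhouse period; application to the flood layer, 3 cm above soil and maintained; plants at 2-leaf stage when treated.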

[2] = tested on: barnyardgrass (Echinochloa crus-galli); assay: Test B flooded paddy test; details: Flood, 250 g ai/ha; 0 to 100 scale where 0 is no effect and 100 is complete control; 13 to 15 d
Method in brief: as §1

rice (Oryra sativa) = assay: Test B flooded paddy test; details: Flood, 250 g ai/ha; 0 to 100 scale where 0 is no effect and 100 is complete control; 13 to 15 d
Method in brief: as §1

[3] = tested on: sedge, umbrella (small-flower umbrella sedge, Cyperus difformis); assay: Test B flooded paddy test; details: Flood, 250 g ai/ha; 0 to 100 scale where 0 is no effect and 100 is complete control; 13 to 15 d
Method in brief: as §1

[4] = tested on: pigweed (Amaranthus retroflexus); assay: Test A preemergence; details: for Plant response rating, Pigweed: 125 g ai/ha, preemergence, 0 to 100 scale (0 no effect, 100 complete control); for Pigweed plant response rating (0 to 100 scale, 0 is no effect, 100 is complete control): Preemergence, 500 g ai/ha, visual injury approx. 10 d
[5] = tested on: giant foxtail (Setaria faberii); assay: Test A preemergence; details: for Plant response rating, Foxtail, Giant: 125 g ai/ha, preemergence, 0 to 100 scale (0 no effect, 100 complete control); for Foxtail, Giant plant response rating (0 to 100 scale, 0 is no effect, 100 is complete control): Preemergence, 500 g ai/ha, visual injury approx. 10 d
Method in brief: (§2)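 Visual injury scores from 0, no effect, to 100, complete control, were assigned versus untreated controls roughly 10 d after treatment in the greenhouse. Test chemicals, formulated with surfactant in a non-phytotoxic solvent, were applied to planted seeds as a preemergence soil spray or postemergence to one- to two-leaf plants 2 to 10 cm tall, in loam–sand soil.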

[6] = tested on: ragweed (common ragweed, Ambrosia elatior); assay: Test A preemergence; details: for Plant response rating, Ragweed: 125 g ai/ha, preemergence, 0 to 100 scale (0 no effect, 100 complete control); for Ragweed plant response rating (0 to 100 scale, 0 is no effect, 100 is complete control): Preemergence, 500 g ai/ha, visual injury approx. 10 d
Method in brief: as §2

[7] = tested on: barnyardgrass (Echinochloa crus-galli); assay: Test A preemergence; details: for Plant response rating, Barnyardgrass: 125 g ai/ha, preemergence, 0 to 100 scale (0 no effect, 100 complete control); for Barnyardgrass plant response rating (0 to 100 scale, 0 is no effect, 100 is complete control): Preemergence, 500 g ai/ha, visual injury approx. 10 d
Method in brief: as §2

[8] = tested on: ryegrass, Italian (Italian ryegrass, Lolium multiflorum); assay: Test A preemergence; details: for Plant response rating, Ryegrass, Italian: 125 g ai/ha, preemergence, 0 to 100 scale (0 no effect, 100 complete control); for Ryegrass, Italian plant response rating (0 to 100 scale, 0 is no effect, 100 is complete control): Preemergence, 500 g ai/ha, visual injury approx. 10 d
Method in brief: as §2

Kochia (Kochia scoparia) [9] = assay: Test A preemergence; details: for Plant response rating, Kochia: 125 g ai/ha, preemergence, 0 to 100 scale (0 no effect, 100 complete control); for Kochia plant response rating (0 to 100 scale, 0 is no effect, 100 is complete control): Preemergence, 500 g ai/ha, visual injury approx. 10 d
Method in brief: as §2

[10] = tested on: pigweed (Amaranthus retroflexus); assay: Test A postemergence; details: postemergence; for Pigweed plant response rating: 125 g ai/ha, visual injury rating on 0 to 100 scale (0 no effect, 100 complete control), approx. 10 d; for Plant response rating, Pigweed: 500 g ai/ha, 0 to 100 scale, 0 no effect, 100 complete control
Method in brief: as §2

[11] = tested on: giant foxtail (Setaria faberii); assay: Test A postemergence; details: postemergence; for Foxtail, Giant plant response rating: 125 g ai/ha, visual injury rating on 0 to 100 scale (0 no effect, 100 complete control), approx. 10 d; for Plant response rating, Foxtail, Giant: 500 g ai/ha, 0 to 100 scale, 0 no effect, 100 complete control
Method in brief: as §2

[12] = tested on: ragweed (common ragweed, Ambrosia elatior); assay: Test A postemergence; details: postemergence; for Ragweed plant response rating: 125 g ai/ha, visual injury rating on 0 to 100 scale (0 no effect, 100 complete control), approx. 10 d; for Plant response rating, Ragweed: 500 g ai/ha, 0 to 100 scale, 0 no effect, 100 complete control
Method in brief: as §2

[13] = tested on: Galium (catchweed bedstraw, Galium aparine); assay: Test A postemergence; details: postemergence; for Galium plant response rating: 125 g ai/ha, visual injury rating on 0 to 100 scale (0 no effect, 100 complete control), approx. 10 d; for Plant response rating, Galium: 500 g ai/ha, 0 to 100 scale, 0 no effect, 100 complete control
Method in brief: as §2

[14] = tested on: barnyardgrass (Echinochloa crus-galli); assay: Test A postemergence; details: postemergence; for Barnyardgrass plant response rating: 125 g ai/ha, visual injury rating on 0 to 100 scale (0 no effect, 100 complete control), approx. 10 d; for Plant response rating, Barnyardgrass: 500 g ai/ha, 0 to 100 scale, 0 no effect, 100 complete control
Method in brief: as §2

[15] = tested on: blackgrass (Alopecurus myosuroides); assay: Test A postemergence; details: postemergence; for Blackgrass plant response rating: 125 g ai/ha, visual injury rating on 0 to 100 scale (0 no effect, 100 complete control), approx. 10 d; for Plant response rating, Blackgrass: 500 g ai/ha, 0 to 100 scale, 0 no effect, 100 complete control
Method in brief: as §2

[16] = tested on: ryegrass, Italian (Italian ryegrass, Lolium multiflorum); assay: Test A postemergence; details: postemergence; for Ryegrass, Italian plant response rating: 125 g ai/ha, visual injury rating on 0 to 100 scale (0 no effect, 100 complete control), approx. 10 d; for Plant response rating, Ryegrass, Italian: 500 g ai/ha, 0 to 100 scale, 0 no effect, 100 complete control
Method in brief: as §2

[17] = tested on: wheat (Triticum aestivum); assay: Test A postemergence; details: postemergence; for Wheat plant response rating: 125 g ai/ha, visual injury rating on 0 to 100 scale (0 no effect, 100 complete control), approx. 10 d; for Plant response rating, Wheat: 500 g ai/ha, 0 to 100 scale, 0 no effect, 100 complete control
Method in brief: as §2

Kochia (Kochia scoparia) [18] = assay: Test A postemergence; details: postemergence; for Kochia plant response rating: 125 g ai/ha, visual injury rating on 0 to 100 scale (0 no effect, 100 complete control), approx. 10 d; for Plant response rating, Kochia: 500 g ai/ha, 0 to 100 scale, 0 no effect, 100 complete control
Method in brief: as §2

corn (Zea mays) = assay: Test A postemergence; details: postemergence; for Corn plant response rating: 125 g ai/ha, visual injury rating on 0 to 100 scale (0 no effect, 100 complete control), approx. 10 d; for Plant response rating, Corn: 500 g ai/ha, 0 to 100 scale, 0 no effect, 100 complete control
Method in brief: as §2

| Structure (SMILES) | Plant response rating, Ducksalad [1] | Plant response rating, Barnyardgrass [2] | Plant response rating, Rice (rice (Oryra sativa)) | Plant response rating, Sedge, Umbrella [3] | Plant response rating, Pigweed [4] | Pigweed plant response rating (0 to 100 scale, 0 is no effect, 100 is complete control) [4] | Plant response rating, Foxtail, Giant [5] | Foxtail, Giant plant response rating (0 to 100 scale, 0 is no effect, 100 is complete control) [5] | Plant response rating, Ragweed [6] | Ragweed plant response rating (0 to 100 scale, 0 is no effect, 100 is complete control) [6] | Plant response rating, Barnyardgrass [7] | Barnyardgrass plant response rating (0 to 100 scale, 0 is no effect, 100 is complete control) [7] | Plant response rating, Ryegrass, Italian [8] | Ryegrass, Italian plant response rating (0 to 100 scale, 0 is no effect, 100 is complete control) [8] | Plant response rating, Kochia (Kochia (Kochia scoparia) [9]) | Kochia plant response rating (0 to 100 scale, 0 is no effect, 100 is complete control) (Kochia (Kochia scoparia) [9]) | Pigweed plant response rating [10] | Plant response rating, Pigweed [10] | Foxtail, Giant plant response rating [11] | Plant response rating, Foxtail, Giant [11] | further results |
| --- | --- | --- | --- | --- | --- | --- | --- | --- | --- | --- | --- | --- | --- | --- | --- | --- | --- | --- | --- | --- | --- |
| CN1CC(c2ccc(C(F)(F)F)c(F)c2)C(C(=O)Nc2ccccc2S(C)(=O)=O)C1=O (stereo not drawn) [Compound 397] | 75 | 65 | 0 | 0 | 90 | 90 | 90 | 90 | 50 | 70 | 80 | 90 | 30 | 70 | 70 | 90 | 40 | 70 | 70 | 80 | Ragweed plant response rating [12]: 0; Plant response rating, Ragweed [12]: 20; Galium plant response rating [13]: 60; Plant response rating, Galium [13]: 60; Barnyardgrass plant response rating [14]: 70; Plant response rating, Barnyardgrass [14]: 90; Blackgrass plant response rating [15]: 60; Plant response rating, Blackgrass [15]: 70; Ryegrass, Italian plant response rating [16]: 40; Plant response rating, Ryegrass, Italian [16]: 60; Wheat plant response rating [17]: 40; Plant response rating, Wheat [17]: 50; Kochia plant response rating (Kochia (Kochia scoparia) [18]): 20; Plant response rating, Kochia (Kochia (Kochia scoparia) [18]): 50; Corn plant response rating (corn (Zea mays)): 50; Plant response rating, Corn (corn (Zea mays)): 70 |
| CN1CC(c2ccc(C(F)(F)F)cc2)C(C(=S)Nc2ccccc2F)C1=O (stereo not drawn) [Compound 450] | 75 | 45 | 0 | 0 | 70 | 80 | 90 | 90 | 20 | 70 | 90 | 90 | 0 | 40 | 50 | 80 | 50 | 60 | 80 | 80 | Ragweed plant response rating [12]: 20; Plant response rating, Ragweed [12]: 30; Galium plant response rating [13]: 50; Plant response rating, Galium [13]: 60; Barnyardgrass plant response rating [14]: 80; Plant response rating, Barnyardgrass [14]: 90; Blackgrass plant response rating [15]: 20; Plant response rating, Blackgrass [15]: 40; Ryegrass, Italian plant response rating [16]: 0; Plant response rating, Ryegrass, Italian [16]: 50; Wheat plant response rating [17]: 0; Plant response rating, Wheat [17]: 30; Kochia plant response rating (Kochia (Kochia scoparia) [18]): 20; Plant response rating, Kochia (Kochia (Kochia scoparia) [18]): 50; Corn plant response rating (corn (Zea mays)): 20; Plant response rating, Corn (corn (Zea mays)): 60 |
